Active and inactive are the calls of the source. The rule behind the calls is not given here.
Legend:
HCT-116 [1] = experiment: Cytotoxicity against human HCT-116 cells assessed as growth inhibition at 1.25 to 20 uM measured after 24 hrs in presence of ROS scavenger NAC by CCK-8 assay; assay type: functional, cell-based; details: dose 1.25-20 µM
HCT-116 [2] = experiment: Induction of endoplasmic reticulum (ER) stress in human HCT-116 cells assessed as organelle vacuoles at 10 to 20 nM measured after 24 hrs by transmission electron microscope (TEM) analysis; assay type: functional, cell-based; details: dose 10-20 nM
NCM460 = experiment: Antiproliferative activity against human NCM460 cells assessed as inhibition of proliferation at 2.5 to 20 nM measured after 24 hrs by CCK-8 assay; assay type: toxicity, cell-based; details: ncm460, 24 h, 0.02 µM, dose 2.5-20 nM
CT26 [3] = experiment: Induction of mitochondrial dysfunction in mouse CT26 cells assessed as change in mitochondrial membrane potential (MMP) by JC-1 fluorescence assay; assay type: functional, cell-based; details: dose 2.5-40 µM
Mus musculus [4] = experiment: Antitumor activity against C57B/6-APCmin/+ mouse model assessed as increase in phosphorylation of IRE1alpha in tumors at 3 mg/kg, ip treated for 45 days relative to control; assay type: functional, organism-based; details: time 45.0 day
Mus musculus [5] = experiment: Antitumor activity against C57B/6-APCmin/+ mouse model assessed as increase in phosphorylation of eIF2alpha in tumors at 3 mg/kg, ip treated for 45 days relative to control; assay type: functional, organism-based; details: time 45.0 day
CT26 [6] = experiment: Induction of endoplasmic reticulum (ER) stress in mouse CT26 cells assessed as increase p-PERK expression at 10 to 40 nM measured after 24 hrs by Western blot analysis; assay type: functional, cell-based; details: dose 10-40 nM
[7] = Toxicity in C57BL/6-APCmin/+ mouse model assessed as change in body weight at 3 mg/kg, ip treated for 45 days; assay type: organism-based; details: in vivo, 1080 h, time 45 day
CT26 [8] = experiment: Induction of endoplasmic reticulum (ER) stress in mouse CT26 cells assessed as rough long-linear and irregularly dilated with locally verified expansion at 10 to 20 nM measured after 24 hrs by transmission electron microscope (TEM) analysis; assay type: functional, cell-based; details: dose 10-20 nM
HCT-116 [9] = experiment: Induction of endoplasmic reticulum (ER) stress in human HCT-116 cells assessed as upregulation of cleaved-caspase 3 at 10 to 20 nM measured after 24 hrs by Western blot analysis; assay type: functional, cell-based; details: dose 10-20 nM
Tubulin (Homo sapiens) [10] = target: T1, Tubulin (Homo sapiens) (UniProt P68371+Q9H4B7+P0DPH7+P68366+Q13509+Q71U36+P04350+Q3ZCM7+P07437+P68363+Q9BQE3+Q6PEY2+Q13885+Q9BVA1+Q9BUF5); experiment: Disruption of microtubule assembly in human HCT-116 cells assessed as reduced/disorganized microtubule network measured after 24 hrs by high-resolution microscopy; assay type: cell-based
CT26 [11] = experiment: Induction of endoplasmic reticulum (ER) stress in mouse CT26 cells assessed as increase in ROS level at 20 nM measured after 24 hrs by fluorescent analysis (reference value: 14%); assay type: functional
HCT-116 [12] = experiment: Induction of endoplasmic reticulum (ER) stress in human HCT-116 cells assessed as increase in ROS level at 10 to 20 nM measured after 24 hrs by DCFH-DA analysis; assay type: functional, cell-based; details: dose 10-20 nM
HCT-116 [13] = experiment: Induction of endoplasmic reticulum (ER) stress in human HCT-116 cells assessed as increase in ROS level at 2.5 nM measured after 24 hrs by fluorescent analysis (reference value: 12%); assay type: functional
HCT-116 [14] = experiment: Induction of cell cycle arrest in human HCT-116 cells […] assessed as accumulation of cells at G2/M phase at 2.5 to 10 nM by flow cytometry analysis; assay type: functional, cell-based; details: dose 2.5-10 nM
[15] = Toxicity in BALB/c mouse xenografted with human HCT116 cells assessed as side effects at 1.5 to 3 mg/kg, ip thrice a week for three weeks; assay type: organism-based, HCT-116; details: in vivo, 504 h, dose 1.5-3 mg/kg, time 3 weeks
PC-12 = experiment: Antiproliferative activity against rat PC12 cells assessed as inhibition of proliferation at 2.5 to 20 nM measured after 24 hrs by CCK-8 assay; assay type: toxicity, cell-based; details: pc-12, 24 h, 0.02 µM, dose 2.5-20 nM
HCT-116 [16] = experiment: Induction of endoplasmic reticulum (ER) stress in human HCT-116 cells assessed as increase in ROS level at 20 nM measured after 24 hrs by fluorescent analysis (reference value: 12%); assay type: functional
CT26 [17] = experiment: Induction of apoptosis in mouse CT26 cells assessed as dead cells at 2.5 to 40 nM measured after 24 hrs by PI/Annexin V-FITC staining based flow cytometry; assay type: functional, cell-based; details: dose 2.5-40 nM
Mus musculus [18] = experiment: Antitumor activity against C57BL/6-APCmin/+ mouse model assessed as reduction in number of tumors in intestine at 3 mg/kg, ip treated for 45 days relative to control; assay type: functional, organism-based; details: time 45.0 day
Tubulin (Homo sapiens) [19] = target: T1, Tubulin (Homo sapiens); experiment: Inhibition of tubulin polymerization (unknown origin); assay type: protein-complex assay; details: dose 12.5-100 µM
HCT-116 [20] = experiment: Antiproliferative activity against human HCT-116 cells assessed as dead cells at 2.5 to 20 nM measured after 24 hrs by Calcein-AM/PI staining based immunofluorescence analysis; assay type: functional, cell-based; details: dose 2.5-20 nM
HCT-116 [21] = experiment: Anti-tumor activity against human HCT-116 cells xenografted in BALB/c mouse assessed as inhibition of cell proliferation in tumor section at 3 mg/kg, ip thrice a week for three weeks by Ki-67 staining based assay; assay type: functional, organism-based; details: time 3.0 weeks
CT26 [22] = experiment: Induction of endoplasmic reticulum (ER) stress in mouse CT26 cells assessed as increase in ROS level at 5 nM measured after 24 hrs by fluorescent analysis (reference value: 14%); assay type: functional
CT26 [23] = experiment: Induction of endoplasmic reticulum (ER) stress in mouse CT26 cells assessed as upregulation of cleaved-caspase 3 at 10 to 40 nM measured after 24 hrs by Western blot analysis; assay type: functional, cell-based; details: dose 10-40 nM
HCT-116 [24] = experiment: Cytotoxicity against human HCT-116 cells assessed as growth inhibition measured after 24 hrs in presence of GSK2606414 PERK inhibitor by CCK-8 assay; assay type: functional, cell-based
HCT-116 [25] = experiment: Anti-tumor activity against human HCT-116 cells xenografted in BALB/c mouse assessed as increase in necrotic area in tumor section at 3 mg/kg, ip thrice a week for three weeks by H and E staining based assay; assay type: functional, organism-based; details: time 3.0 weeks
HCT-116 [26] = experiment: Induction of endoplasmic reticulum (ER) stress in human HCT-116 cells assessed as increase in ROS level at 1.25 nM measured after 24 hrs by fluorescent analysis (reference value: 12%); assay type: functional
HCT-116 [27] = experiment: Induction of endoplasmic reticulum (ER) stress in human HCT-116 cells assessed as increase in ROS level at 5 nM measured after 24 hrs by fluorescent analysis (reference value: 12%); assay type: functional
Tubulin = experiment: Binding affinity to wild type tubulin (unknown origin) by MST analysis; assay type: protein-complex assay, Homo sapiens
CT26 [28] = experiment: Induction of endoplasmic reticulum (ER) stress in mouse CT26 cells assessed as organelle vacuoles at 10 to 20 nM measured after 24 hrs by transmission electron microscope (TEM) analysis; assay type: functional, cell-based; details: dose 10-20 nM
CT26 [29] = experiment: Induction of endoplasmic reticulum (ER) stress in mouse CT26 cells assessed as increase in ROS level at 40 nM measured after 24 hrs by fluorescent analysis (reference value: 14%); assay type: functional
HCT-116 [30] = experiment: Induction of apoptosis in human HCT116 cells assessed as dead cells at 2.5 to 20 nM measured after 24 hrs by PI/Annexin V-FITC staining based flow cytometry; assay type: functional, cell-based; details: dose 2.5-20 nM

COc1cc(C(=O)/C(C)=C/c2c[nH]c3cc(F)ccc23)cc(OC)c1OC
Activity (HCT-116 [1]): inactive | Activity (HCT-116 [2]): Active | Activity (NCM460): Non-Toxic | Activity (CT26 [3]): Dose-Dependent Effect | Activity (Mus musculus [4]): Active | Activity (Mus musculus [5]): Active | Activity (CT26 [6]): Active | Activity [7]: Non-Toxic | Activity (CT26 [8]): Active | Activity (HCT-116 [9]): Active | Activity (Tubulin (Homo sapiens) [10]): Active | Activity (CT26 [11]): 60.1% | Activity (HCT-116 [12]): Active | Activity (HCT-116 [13]): 35.6% | Activity (HCT-116 [14]): Active | Activity [15]: Non-Toxic | Activity (PC-12): Non-Toxic | Activity (HCT-116 [16]): 74.4% | Activity (CT26 [17]): Active | Activity (Mus musculus [18]): Active | inhibition (Tubulin (Homo sapiens) [19]): Dose-Dependent Effect | Activity (HCT-116 [20]): Active | Activity (HCT-116 [21]): Active | Activity (CT26 [22]): 15% | Activity (CT26 [23]): Active | Activity (HCT-116 [24]): inactive | Activity (HCT-116 [25]): Active | Activity (HCT-116 [26]): 20.1% | Activity (HCT-116 [27]): 48.5% | Kd (Tubulin): 136 nM | Activity (CT26 [28]): Active | Activity (CT26 [29]): 59.1% | Activity (HCT-116 [30]): Active
